We go through six molecules from patent publication US20090143430A1, “ERYTHROPOIETIN PRODUCTION ACCELERATOR” (Kowa Co., Ltd., priority 2002, published 2009).

Data set [1] has as its system Hep3B cells. Briefly: EPO produced in Hep3B cell culture medium under 1% oxygen, ELISA kit (Test Example 2). As to conditions: 24 hrs, 100 nM, control 8.1. In kind it is cell-based. How it is done:
Hep3B cells were inoculated by 1×10^6 on each of 6 cm dishes, and then cultured for 24 hrs. As a culture medium, 3 mL of DMEM/10% FCS was used. The culture medium was exchanged and the compounds of each of Preparation Examples 13, 23, 29, 36, and 114 were added such that the content thereof was 100 nM final concentration, and they were transferred into the atmosphere of 1% oxygen at 37° C. for further 24 hrs culture thereof. The supernatant of the culture was recovered, and the amount of EPO was measured by ELISA kit (product of Roche Diagnostics) (two cases in each group). Further, cell extract was prepared and protein amount was determined, and corrected it as production amount per protein amount. As a control, groups not containing the compounds are prepared.
For orientation: ELISA stands for enzyme-linked immunosorbent assay.

Data set [2] has as its system Hep3B cells. Briefly: EPO protein produced by Hep3B cells under hypoxia (1% O2), ELISA (Test Example 1). As to conditions: 1% O2, 24 hrs. In kind it is cell-based. How it is done: (§1) Hep3B cells producing EPO under hypoxic condition were used. The cells were inoculated onto a 100 mm petri dish by 1.5-3.0×10^6. As a culture medium, 10 ml of Dulbecco's Modified Eagles' Medium (DMEM)/10% Fetal Calf Serum (FCS) was used. The next day, the culture medium was exchanged, and compound of Preparation Example 13 (final concentration: 100 nM) was added, then cells were cultured under 1% O2 at 37° C. for 24 hrs. Groups were prepared in which IL-1β (final concentration: 15 U/ml) or TNF-α (final concentration: 220 U/ml), of which EPO production suppressing action is known (Faquin W C, Schneider T J, Goldgerg M A, Blood, 79(8): 1987-94 (1992)), were used solely or in combination with compound of Preparation Example 13 (final concentration: 100 nM). […] The amount of EPO in the supernatant obtained after the culture was measured by ELISA (each group; n=3). The enhancer site and promoter site (144 bp) of a human EPO gene were linked to luciferase reporter vector, which was used for measuring the EPO promoter activity. The EPO promoter activity was evaluated as follows.
(§2) The data obtained were analyzed and evaluated by Student's t-test.

For the next data set, the system named is human EPO promoter. As to the kind of experiment: EPO promoter activity, luciferase reporter in Hep3B cells, 1% O2 vs 21% O2 (Test Example 1). In kind it is cell-based. Particulars: 24 hrs. How it is done:
as §1
1×10^6 Hep3B cells were inoculated on 30 mm petri dish (4 mL:DMEM/10% FCS), and a reporter gene (2 μg) as well as P-galactosidase gene (1 μg) as an internal standard were transfected into the cells by the lipofectin method. The next day, the culture medium was exchanged and the groups, whose group-composition was similar to the above (control group (containing no agents), IL-1β group (final concentration: 15 U/ml), TNF-α (final concentration: 220 U/ml), compound of Preparation Example 13 (final concentration: 100 nM), or a combination of compound of Preparation Example 13 and IL-1β or TNF-α) were cultured under 1% O2 or 21% O2 (as a control) at 37° C. for 24 hrs (for each group; n=4). The extract of the cells after cultured were prepared, then luciferase activity and β galactosidase activity were measured. The EPO promoter activity was expressed by the formula: […]
as §2
For orientation: Reporter assays use an easily measured gene product as a stand-in for the process of interest.

Another data set relates to anemia model mice. As to the kind of experiment: In vivo mice anemia model with IL-1β or TNF-α suppressed EPO production (Test Example 3). Further details: species or system mouse. How it is done:
ICR mice (available from CLEA Japan Inc.) were made to be anemia by taking blood samples by 0.3 mL at a time from the orbital vein of the mouse by use of a heparin-coated microcapillary by 4 times in every 12 hours from 2 days before administering the agents. Further, 1.67×10^4 unit/day of mouse IL-1β (Roche Diagnostics) or 3.33×10^5 unit/day of mouse TNF-α (Roche Diagnostics) was injected intraperitoneally on day 0-3 (the first day of administration of agents was defined as […]) to induce a suppressed condition of EPO production. To these mice, Preparation Example 13 compound dissolved in 50% polyethylene glycol solution was administered orally by 1 or 3 mg/kg/day on day 0-5. As a control, 50% polyethylene glycol solution was administered (each group; n=7-15). On day 3 and 6, 0.3 mL of blood was collected, and hematocrit (Ht) value, hemoglobin (Hb) concentration (Celltac a: NIHON KOHDEN), EPO amount (ELISA kit: Roche Diagnostics) were measured. Also, the blood was stained by methylene-blue, and smears were prepared to calculate Reticulocytes value.

Counter-ions that a name gives are not always drawn.

Turning to `COc1cc(-c2cncc(CN(c3ccc(SC)cc3)C3CCN(Cc4ccnc(-c5cc(OC)c(OC)c(OC)c5)c4)CC3)c2)cc(OC)c1OC` [Preparation Example 114], the “Increasing action of EPO production (amount of EPO per protein amount)” value in the data set with Hep3B cells [1] is reported as 14.9 mU/mg Protein.
Take `COc1cc(-c2cc(CN3CCC(N(C)Cc4ccnc(-c5cc(OC)c(OC)c(OC)c5)c4)CC3)ccn2)cc(OC)c1OC` [Preparation Example 36, 4-[N-methyl-N-[[2-(3,4,5-trimethoxyphenyl)pyridin-4-yl]methyl]amino]-1-[[2-(3,4,5-trimethoxyphenyl)pyridin-4-yl]methyl]piperidine Tetrahydrochloride]: in the data set with Hep3B cells [1], the “Increasing action of EPO production (amount of EPO per protein amount)” value is recorded as 10.0 mU/mg Protein.
Turning to `COc1cc(-c2cc(CN3CCC(N(Cc4ccnc(-c5cc(OC)c(OC)c(OC)c5)c4)c4ccc5c(c4)OCO5)CC3)ccn2)cc(OC)c1OC` [Preparation Example 29, 4-[N-(3,4-methylenedioxyphenyl)-N-[[2-(3,4,5-trimethoxyphenyl)pyridin-4-yl]methyl]amino]-1-[[2-(3,4,5-trimethoxyphenyl)pyridin-4-yl]methyl]piperidine Trihydrochloride], in the data set on Hep3B cells [1], the “Increasing action of EPO production (amount of EPO per protein amount)” value worked out at 10.5 mU/mg Protein.
Regarding TNF-α, in the data set with Hep3B cells [2] (TNF-α 220 U/ml alone), the “amount of the produced EPO protein” value was 180.8±24.6 mU/mg protein. In the data set with human EPO promoter (TNF-α 220 U/ml alone), the “human EPO promoter activity (HI)” value came to 20.7±4.1 fold. Moreover, the Hb amount came to 12.6 ± 0.7 g/dL with anemia model mice (day 3, TNF-α i.p. alone (control 13.8±0.6)) and 13.1 ± 0.5 g/dL with anemia model mice (day 6, TNF-α i.p. alone (control 14.8±0.8)). The “EPO amount in serum” value stood at 2.7±4.6 mU/mL in the data set with anemia model mice (day 3, TNF-α i.p. alone (control 23.7±31.0)) and 3.3±6.0 mU/mL in the data set on anemia model mice (day 6, TNF-α i.p. alone (control 24.8±33.8)). Further, the reticulocyte value in the data set on anemia model mice (day 3, TNF-α i.p. alone (control 32.1±4.4)) was 14.2±3.4%; with anemia model mice (day 6, TNF-α i.p. alone (control 16.3±3.1)) it was 9.4±3.3%. Further, the Ht value in the data set with anemia model mice (day 3, TNF-α i.p. alone (control 42.2±3.6)) is 38.3±2.5%; in the data set with anemia model mice (day 6, TNF-α i.p. alone (control 46.4±2.9)), 41.6±1.8%.
Consider `COc1cc(OC)cc(N(Cc2ccnc(-c3cc(OC)c(OC)c(OC)c3)c2)C2CCN(Cc3ccnc(-c4cc(OC)c(OC)c(OC)c4)c3)CC2)c1` [Preparation Example 23, 4-[N-(3,5-dimethoxyphenyl)-N-[[2-(3,4,5-trimethoxyphenyl)pyridin-4-yl]methyl]amino]-1-[[2-(3,4,5-trimethoxyphenyl)pyridin-4-yl]methyl]piperidine Trihydrochloride], for which the “Increasing action of EPO production (amount of EPO per protein amount)” value in the data set with Hep3B cells [1] came out at 13.9 mU/mg Protein.

B1: IL-1β: "IL-1β (final concentration: 15 U/ml) ... of which EPO production suppressing action is known"; "mouse IL-1β (Roche Diagnostics)" in vivo (protein, UniProt P10749 118-269, looked up)
Interleukin-1 beta: VPIRQLHYRLRDEQQKSLVLSDPYELKALHLNGQNINQQVIFSMSFVQGEPSNDKIPVALGLKGKNLYLSCVMKDGTPTLQLESVDPKQYPKKKMEKRFVFNKIEVKSKVEFESAEFPNWYISTSQAEHKPVFLGNNSGQDIIDFTMESVSS
As to B1, in the data set with Hep3B cells [2] (IL-1β 15 U/ml alone), the “amount of the produced EPO protein” value is on record as 233.3±19.4 mU/mg protein. The “human EPO promoter activity (HI)” value in the data set on human EPO promoter (IL-1β 15 U/ml alone) was determined as 19.9±6.5 fold. Besides, the Hb amount with anemia model mice (day 3, IL-1β i.p. alone (control 13.8±0.6)) worked out at 12.3 ± 0.8 g/dL; in the data set with anemia model mice (day 6, IL-1β i.p. alone (control 14.8±0.8)), 13.5 ± 0.5 g/dL. Moreover, the “EPO amount in serum” value in the data set with anemia model mice (day 3, IL-1β i.p. alone (control 23.7±31.0)) is 5.9±14.3 mU/mL; in the data set on anemia model mice (day 6, IL-1β i.p. alone (control 24.8±33.8)), 2.9±5.0 mU/mL. Further, the reticulocyte value is reported as 15.4±3.5% in the data set on anemia model mice (day 3, IL-1β i.p. alone (control 32.1±4.4)) and 12.2±2.0% with anemia model mice (day 6, IL-1β i.p. alone (control 16.3±3.1)). The Ht value in the data set with anemia model mice (day 3, IL-1β i.p. alone (control 42.2±3.6)) amounted to 36.0±3.0%; in the data set on anemia model mice (day 6, IL-1β i.p. alone (control 46.4±2.9)) it was 40.9±1.5%.
